Assay results from ChEMBL document CHEMBL2331514, “Structure-based design and synthesis of novel pseudosaccharine derivatives as antiproliferative agents and kinase inhibitors” (Eur J Med Chem, 2013).

assay: Partition coefficient, log P of the compound; assay type: physicochemical; settings: octanol/water

**Q.** Which logP does the source give for `CCOC(=O)C(=CNc1ccc2c(c1)C(Nc1ccc(Cl)cc1)=NS2(=O)=O)C(=O)OCC` here?
**A.** Its logP is 2.39.

**Q.** For `O=C(Nc1ccc(Br)cc1)Nc1ccc(OC2=NS(=O)(=O)c3ccccc32)cc1`, which logP is on record?
**A.** Its logP is 3.64.

**Q.** Which logP does the source give for `O=C(Nc1ccc(Cl)cc1)Nc1ccc(OC2=NS(=O)(=O)c3ccccc32)cc1` here?
**A.** Its logP is 3.55.

**Q.** With `O=C(O)CCC(=O)Nc1ccc2c(c1)C(Nc1cccc(Br)c1)=NS2(=O)=O` as the compound, how does the logP read?
**A.** Its logP is 1.26.

**Q.** With `CCOC(=O)C(=CNc1ccc2c(c1)C(Nc1cccc(Br)c1)=NS2(=O)=O)C(=O)OCC` as the compound, how does the logP read?
**A.** Its logP is 2.48.

**Q.** Which logP does the source give for `O=C(Nc1ccccc1)Nc1ccc2c(c1)C(Nc1ccc(Cl)cc1Cl)=NS2(=O)=O` here?
**A.** Its logP is 3.57.
